This is an account of results in ChEMBL document CHEMBL1201862, “PubChem BioAssay data set” (2004).

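A five-concentration, 48-hour dose response in 96-well plates underlies each endpoint, interpolated linearly between surrounding concentrations. The concentration for 50% growth inhibition is given as GI50.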 The source made the active and inactive calls. No stated cut-off is given here; in the data, active = GI50 up to about 1.1 µM and inactive = higher.

Some test systems named below: HCT-116; IGROV-1; SK-OV-3; HCT-15; 786-0; EKVX; CAKI-1; OVCAR-4; COLO 205; HT-29; HCC 2998; MOLT-4; M14; CCRF-CEM; HOP-92; SK-MEL-5.
Holding throughout (experiment): NCI tumour cell line growth inhibition, 48 h

As to `Cc1ccc(NS(=O)(=O)c2cc(C(C)(C)C)ccc2OCCOCCOCCOc2ccc(C(C)(C)C)cc2S(=O)(=O)Nc2ccc(C)cc2)cc1`, the GI50 in the assay with HCT-116 is > 100 µM (inactive); in the assay on IGROV-1, > 100 µM (inactive); in the assay with SK-OV-3, > 100 µM (inactive); in the assay with HCT-15, above 100 µM; with 786-0 it was > 100 µM (inactive); in the assay with EKVX it was > 100 µM (inactive). Moreover, the GI50 in the assay on CAKI-1, in the assay on OVCAR-4, with COLO 205, in the assay on HT-29, with HCC 2998 and in the assay on MOLT-4 was > 100 µM (inactive) in each case. In addition, the GI50 in the assay on M14, with CCRF-CEM, with HOP-92 and in the assay with SK-MEL-5 was > 100 µM (inactive) each time.

Turning to `O=C1C=C(Nc2ccccc2C(=O)CC(=O)C(=O)Nc2ccc(Cl)c(Cl)c2)c2ccccc2C1=O`, the GI50 in the assay with HCT-116 is > 10 µM (inactive); in the assay on IGROV-1, > 100 µM (inactive); with SK-OV-3, > 100 µM (inactive); with HCT-15, 20.4 µM; with 786-0 it was 35.3 µM (inactive); in the assay on EKVX, > 10 µM (inactive). The GI50 in the assay on CAKI-1 is 87.3 µM (inactive); with OVCAR-4, 59.4 µM (inactive); in the assay on COLO 205, > 100 µM (inactive); in the assay on HT-29 it was > 100 µM (inactive); in the assay on HCC 2998, > 100 µM (inactive); in the assay with MOLT-4, 3.72 µM (inactive). Moreover, the GI50 in the assay on M14 was 32.1 µM (inactive); in the assay on CCRF-CEM, 4.76 µM (inactive); with HOP-92, 75.9 µM (inactive); in the assay on SK-MEL-5 it was 7.78 µM (inactive).

As to `COc1ccc2c([nH]c3c(O)c(-c4c(C)cc5c([nH]c6c(CC=C(C)C)c(OC)ccc65)c4O)c(C)cc32)c1CC=C(C)C` [BISMURRAYAFOLINE B], the GI50 was > 100 µM (inactive) with HCT-116; > 100 µM (inactive) in the assay with IGROV-1; > 100 µM (inactive) with SK-OV-3; above 100 µM in the assay on HCT-15; > 100 µM (inactive) with 786-0; > 100 µM (inactive) in the assay with CAKI-1. Besides, the GI50 with OVCAR-4, in the assay with COLO 205, in the assay on HT-29, with HCC 2998, with MOLT-4 and with M14 was > 100 µM (inactive) each time. For the same molecule, the GI50 in the assay on CCRF-CEM, in the assay on HOP-92 and in the assay on SK-MEL-5 was > 100 µM (inactive) throughout.

Turning to `N#Cc1cccc(/C=N/C23CC4CC(CC(C4)C2)C3)c1`, the GI50 was 57.3 µM (inactive) in the assay with HCT-116; > 100 µM (inactive) in the assay with IGROV-1; > 100 µM (inactive) with SK-OV-3; above 100 µM in the assay with HCT-15; > 100 µM (inactive) with 786-0; > 100 µM (inactive) in the assay on EKVX. The GI50 is > 100 µM (inactive) in the assay on CAKI-1; > 100 µM (inactive) with OVCAR-4; > 100 µM (inactive) with COLO 205; > 100 µM (inactive) in the assay with HT-29; > 100 µM (inactive) in the assay with HCC 2998; 99.1 µM (inactive) in the assay with MOLT-4. Besides, the GI50 is > 100 µM (inactive) in the assay with M14, 62.5 µM (inactive) in the assay on CCRF-CEM, > 100 µM (inactive) in the assay with HOP-92 and > 10 µM (inactive) in the assay with SK-MEL-5.

Regarding `CC1CC(c2ccc([N+](=O)[O-])cc2)=Nc2ccccc2S1` (configuration not stated), the GI50 is 1.75 µM (inactive) with HCT-116; 18 µM (inactive) with IGROV-1; 17.1 µM (inactive) with SK-OV-3; 15.4 µM with HCT-15; 15.3 µM (inactive) with 786-0; 23.6 µM (inactive) with EKVX. For the same molecule, the GI50 in the assay on CAKI-1 was 24.4 µM (inactive); with OVCAR-4 it was 16.7 µM (inactive); with COLO 205, 24 µM (inactive); in the assay on HT-29, 13.4 µM (inactive); in the assay with HCC 2998, 19.1 µM (inactive); in the assay with MOLT-4, 18.1 µM (inactive). Besides, the GI50 is 14.2 µM (inactive) with M14, 4.32 µM (inactive) with CCRF-CEM, 29 µM (inactive) in the assay on HOP-92 and 21.5 µM (inactive) with SK-MEL-5.

For the molecule `CC(C)(C)C1CCC2(CC1)c1[nH]c3ccccc3c1C1(CCC(C(C)(C)C)CC1)c1[nH]c3ccccc3c12` (configuration not stated), the GI50 with HCT-116 was 41.6 µM (inactive); in the assay on IGROV-1, > 100 µM (inactive); in the assay on SK-OV-3, > 100 µM (inactive); in the assay with HCT-15, above 100 µM; with 786-0, 7.08 µM (inactive); in the assay with EKVX, > 100 µM (inactive). For the same molecule, the GI50 in the assay with CAKI-1 is > 100 µM (inactive); in the assay on OVCAR-4, > 100 µM (inactive); with COLO 205 it was 88.9 µM (inactive); in the assay on HT-29, > 100 µM (inactive); with HCC 2998 it was > 100 µM (inactive); with MOLT-4, > 100 µM (inactive). Moreover, the GI50 in the assay with M14, with CCRF-CEM, with HOP-92 and in the assay with SK-MEL-5 was > 100 µM (inactive) throughout.

`COC(=O)C1=C(c2ccc(OC)c(OC)c2)OC(c2cc(OC)c(OC)c(OC)c2)C1` (configuration not stated): the GI50 was 24.7 µM (inactive) with IGROV-1; 15.3 µM (inactive) in the assay on SK-OV-3; 20 µM (inactive) in the assay with 786-0; > 100 µM (inactive) with EKVX; 60.3 µM (inactive) in the assay with CAKI-1; 16.1 µM (inactive) with OVCAR-4. In addition, the GI50 was > 100 µM (inactive) in the assay on HT-29; > 100 µM (inactive) in the assay with HCC 2998; 65.6 µM (inactive) in the assay on M14; > 100 µM (inactive) in the assay on CCRF-CEM; 23.2 µM (inactive) with HOP-92; 29.3 µM (inactive) in the assay on SK-MEL-5.

On to `COC(=O)C1=C(C)N(NC(N)=O)C2(N)N(NC(N)=O)C(C)=C(C(=O)OC)C12C#N` (configuration not stated), for which the GI50 in the assay with HCT-116 is > 100 µM (inactive); in the assay with IGROV-1, > 100 µM (inactive); in the assay with SK-OV-3 it was > 100 µM (inactive); in the assay with HCT-15, above 100 µM; in the assay on 786-0 it was > 100 µM (inactive); with EKVX, > 100 µM (inactive). Further, the GI50 in the assay with CAKI-1, in the assay with OVCAR-4, in the assay on COLO 205, in the assay on HT-29, in the assay with HCC 2998 and in the assay on MOLT-4 was > 100 µM (inactive) throughout. The GI50 in the assay on M14, with CCRF-CEM and with HOP-92 was > 100 µM (inactive) each time.

As for `CCCCCCCCCCCC(=O)OCC1OC(n2cc(F)c(=O)[nH]c2=O)C(N)C(O)C1O` (configuration not stated), the GI50 was 88.1 µM (inactive) in the assay on HCT-116; > 100 µM (inactive) in the assay on IGROV-1; > 100 µM (inactive) in the assay on SK-OV-3; above 100 µM in the assay with HCT-15; > 100 µM (inactive) in the assay with 786-0; > 100 µM (inactive) in the assay with EKVX. For the same molecule, the GI50 with CAKI-1 was 49 µM (inactive); with OVCAR-4, > 100 µM (inactive); in the assay on COLO 205, 60.3 µM (inactive); in the assay with HT-29, 55.3 µM (inactive); in the assay on HCC 2998, > 100 µM (inactive); in the assay on MOLT-4, 36.3 µM (inactive). Moreover, the GI50 was > 100 µM (inactive) with M14, 31.2 µM (inactive) with CCRF-CEM, > 100 µM (inactive) with HOP-92 and > 100 µM (inactive) in the assay with SK-MEL-5.

Take `COc1ccc(S(=O)(=O)N/N=C/c2cc(I)cc([N+](=O)[O-])c2O)cc1OC`: the GI50 in the assay on IGROV-1 is 37.7 µM (inactive); in the assay with SK-OV-3, 32.4 µM (inactive); with HCT-15 it was 36.6 µM; in the assay on 786-0, 45.9 µM (inactive); in the assay on EKVX, 44.5 µM (inactive); in the assay on CAKI-1, 31.6 µM (inactive). The GI50 was 25.2 µM (inactive) with OVCAR-4; 50.9 µM (inactive) with COLO 205; 46.3 µM (inactive) with HT-29; 50.6 µM (inactive) with HCC 2998; 24.8 µM (inactive) in the assay with MOLT-4; 36.1 µM (inactive) in the assay on M14. The GI50 was 34.4 µM (inactive) in the assay with CCRF-CEM, 19.1 µM (inactive) in the assay with HOP-92 and 19.8 µM (inactive) in the assay on SK-MEL-5.

`CCOC(=O)c1cnc2oc(-c3ccc(OC)cc3)nn2c1=O`: the GI50 is > 100 µM (inactive) in the assay with HCT-116; > 100 µM (inactive) with IGROV-1; > 100 µM (inactive) in the assay on SK-OV-3; above 100 µM with HCT-15; > 100 µM (inactive) with 786-0; > 100 µM (inactive) in the assay with EKVX. The GI50 was > 100 µM (inactive) in the assay on OVCAR-4; > 100 µM (inactive) in the assay on COLO 205; > 100 µM (inactive) with HT-29; > 100 µM (inactive) in the assay with HCC 2998; > 100 µM (inactive) in the assay with MOLT-4; 29.5 µM (inactive) in the assay with HOP-92. Moreover, in the assay on SK-MEL-5, the GI50 was > 100 µM (inactive).

`CC1=C(C(=O)Nc2ccc([N+](=O)[O-])cc2)C(c2cccc([N+](=O)[O-])c2)C(C(=O)Nc2ccc([N+](=O)[O-])cc2)=C(C)N1`: the GI50 in the assay with HCT-116 was 5.97 µM (inactive); in the assay with IGROV-1 it was 21.2 µM (inactive); in the assay with SK-OV-3, 8.45 µM (inactive); in the assay on HCT-15, 61.7 µM; in the assay on 786-0 it was 48.2 µM (inactive); in the assay on EKVX, 48.2 µM (inactive). Further, the GI50 in the assay with OVCAR-4 was 48.6 µM (inactive); in the assay on COLO 205, 45.8 µM (inactive); in the assay on HT-29, 21.9 µM (inactive); in the assay with HCC 2998, 25.6 µM (inactive); in the assay on MOLT-4, 5.35 µM (inactive); with M14 it was 24.3 µM (inactive). Further, the GI50 in the assay on CCRF-CEM was 12.6 µM (inactive); with HOP-92, 5.31 µM (inactive).

Take `c1cc2c(cnc3cscc32)s1`: the GI50 in the assay with HCT-116 was > 100 µM (inactive); with HCT-15, above 100 µM; in the assay with 786-0, > 100 µM (inactive); in the assay with CAKI-1, 95.5 µM (inactive); with OVCAR-4 it was > 100 µM (inactive); with HT-29 it was > 100 µM (inactive). In addition, the GI50 with HCC 2998, in the assay with MOLT-4, in the assay with M14, in the assay on CCRF-CEM, with HOP-92 and in the assay on SK-MEL-5 was > 100 µM (inactive) in each case.
